Results as given in patent US20250043290A1, “RNA SEQUENCES THAT INDUCE FLUORESCENCE OF SMALL MOLECULE FLUOROPHORES, MOLECULAR COMPLEXES, SENSORS, AND METHODS OF USE THEREOF” (CORNELL UNIVERSITY, priority 2021, published 2025).
“Also recorded” adds a separate entry of the source.

Experiments:
[1] = tested on: mES cells; assay: Ratiometric SAM imaging in mES cells; type: cell-based, Mouse; settings: 30 mM cycloleucine, +2i and −2i media, sensor 4-2
[2] = tested on: HEK293T cells; assay: SAM sensor imaging in HEK293T cells; type: cell-based; settings: 30 mM cycloleucine, within 30 minutes
Procedure: FIG. 4A is a schematic showing the design of the Squash-SAM sensor transducer library. The SAM-III aptamer (top) was fused to Squash (bottom) through a transducer helix (middle). The sensor was selected from a library of randomized transducer sequences generated using the sprouts/clips method. FIG. 4B is a bar graph showing the results of an experiment in which, after three rounds of SELEX, two Squash-SAM sensors, 5-1 and 4-2, were tested for SAM-induced fluorescence. Squash-SAM sensor RNAs (1 μM) were incubated with 10 μM DFHO and 0 or 0.1 mM SAM for 1 hour at 37° C. and then fluorescence was measured (ex. 495 nm; em. 562 nm). Data represent mean values±s.d. for n=3 independent experiments. FIGS. 4C-4D are plots showing the kinetics of fluorescence activation (FIG. 4C) and deactivation (FIG. 4D) of Squash-SAM sensors. Sensor activation was induced by adding 0.1 mM SAM to 1 μM sensor RNAs and 10 μM DFHO at 37° C. Deactivation was measured after removal of SAM by gel filtration. […] SAM binding activates the orange fluorescence by promoting Squash folding and subsequent binding with DFHO. The constitutive green fluorescence of Broccoli-BI is used for normalization, thus eliminating the confounding effect of cell-to-cell variation in sensor expression level, and different fluorescence measurements in thick vs. thin parts of the cell. […] The ratio was measured at 10 minute time intervals. […]

[3] = tested on: HCT116 cells; assay: Ratiometric SAM imaging in HCT116 cells; type: cell-based; settings: 30 mM cycloleucine, sensor 5-1
Procedure: The control constitutively fluorescent Squash was not affected by withdrawal of threonine and methionine. Scale bar, 20 μm. […] Overall, low cell-to-cell variation was seen (n=8 cells from three separate experiments). […] The rate of SAM drop was slower than the rate in cells cultured in +2i (n=8 cells from three separate experiments). […] SAM levels were measured at 20 minute time intervals after methionine withdrawal and after methionine (100 μM) addition. Cells indicated with a white arrow start with a very high level of SAM and show a slow drop in SAM levels over time, indicating low SAM utilization. Scale bar, 20 μm. […]
5-1 was used because it has higher dynamic range. […] To test if this also holds in HCT116 cells, Squash-SAM sensor 5-1 was expressed in HCT116 cells and SAM level was monitored after threonine depletion. […] To test this, Squash-SAM sensor 5-1 was expressed in HCT116 cells and SAM levels were monitored for 240 minutes after depleting both threonine and methionine. […] The average cellular ratio of O/G fluorescence was quantified for these cells at 15 minute intervals after cycloleucine (30 mM final) treatment. […]
After placing the plates on a Tokai Hit stage top incubator (37° C. and 5% CO2), live fluorescence images were taken with a Nikon Eclipse Ti-E microscope fitted with a CoolSnap HQ2 CCD camera (Photometrics) through a 40× air objective (NA 0.75). […]

[4] = On and off rates of aptamer binding to DFHO; settings: 50 nM RNA
Procedure: FIGS. 7A-7H provide photophysical and biophysical characterization of Squash. […] Excess RNA was used to ensure binding of nearly all fluorophore. […] Data represent mean values±s.d. for n=3 independent experiments. […] The fluorescence signal trace was fitted with a monoexponential curve to extract kobs. kobs was plotted as a function of total RNA (50 nM RNA) and fluorophore concentration. kon and koff were extracted as the slope and intercept, respectively. Squash koff (0.014±0.008 s^−1) is very similar to that of Corn (0.018±0.002 s^−1). kon for Squash-DFHO (162300±8100 M^−1 s^−1) is seven-times higher than Corn-DFHO (23000±3000 M^−1 s^−1) which could be due to the high folding of Squash. […]
To measure on and off rates of Squash binding to DFHO, the same protocol that was reported previously to measure kinetic rates for Spinach-DFHBI was used (Han et al., “Understanding the Photophysics of the Spinach-DFHBI RNA Aptamer-Fluorogen Complex to Improve Live-Cell RNA Imaging,” J. Am. Chem. Soc. 135:19033-19038 (2013), which is hereby incorporated by reference in its entirety). Briefly, 50 nM RNA was mixed with different amounts of DFHO and binding kinetics was monitored on the fluorimeter as fluorescence signal increases. Each fluorescence signal trace was fitted with a monoexponential curve and the observed rate constant (kobs) was extracted. […]

[5] = Photophysical properties of fluorophores and RNA-fluorophore complexes (Squash study); type: physicochemical; settings: 10 μM RNA, 1 μM DFHO
Procedure: All RNAs used for in vitro studies (except the initial hits from SELEX and the DE2-6 mutants) were purified using 8% denaturing PAGE (7M urea) and eluted in 0.3 M NaOAc (pH 5.2) overnight. The RNA was ethanol precipitated and quantified using absorbance in a NanoDrop 2000 spectrometer. All in vitro RNA properties were measured in 40 mM HEPES-KOH (pH 7.4), 100 mM KCl, 0.5 mM MgCl2 buffer unless specified.
Absorption, excitation, and emission spectra were measured using conditions where the RNA is in excess and the fluorophore is limiting to ensure that no free fluorophore contributes to the absorbance or fluorescence signal (FIGS. 7A-7D).
All quantum yields were determined by comparing each RNA-fluorophore complex with Broccli-DFHBI-1T or Corn-DFHO. All measurements for quantum yield were taken in the presence of excess RNA (10 μM final) compared to the fluorophores (0.2 μM final) to avoid interference from unbound fluorophore. The integral of the emission spectra for each Squash-fluorophore complex was compared with the corresponding integrals for Broccoli or Corn to calculate the quantum yield.

[6] = Fluorescence activation of DFAME by aptamers in vitro; type: biochemical; settings: 20 μM RNA, 2 μM dye
Procedure: To test whether Beetroot can activate DFHO, the fluorescence emission spectrum of the Beetroot-DFHO complex was measured. In brief, 20 μM Beetroot and 2 μM DFHO were mixed, and the fluorescence emission of the Beetroot-DFHO complex was measured. […] To test whether Beetroot can activate DFHBI-1T, the fluorescence emission spectrum of the Beetroot-DFHBI-1T complex was measured using the same protocol described in FIG. 32A. […] To test whether Beetroot can activate BI, the fluorescence emission spectrum of the Beetroot-BI complex was measured using the same protocol described in FIG. 32A. […] To test whether Corn can activate DFAME, the fluorescence emission spectrum of the Corn-DFAME complex was measured using the same protocol described in FIG. 32A.
The eluted RNAs were then ethanol precipitated, reverse transcribed, PCR amplified and in vitro transcribed to yield the pool for the next SELEX round. The presence of fluorescent RNA species in each pool was assessed by mixing 20 μM RNA and 10 μM DFAME and measuring fluorescence emission of this solution on a fluorometer in comparison with the fluorophore alone. At this point, RNAs were cloned into bacterial expression plasmids for FACS-based screening.
dsDNA encoding the top-performing RNA sequences from the brightest bacterial colonies was PCR amplified from the purified plasmids. […] The resulting RNA was then purified using Zymo RNA concentrator columns and quantified by absorbance using a Thermo Scientific NanoDrop 2000 spectrophotometer. For absorption, excitation and emission spectra measurements, “excess RNA” conditions and limiting amount of fluorophore was used to ensure that no free fluorophore contributes to the absorbance or fluorescence signal. The RNA concentration used for fluorescence and absorbance measurements was 20 μM and 50 μM, respectively, while the dye concentration was 2 μM and 5 μM, respectively. All in vitro RNA properties were measured in 40 mM HEPES pH 7.4, 100 mM KCl, 5 mM MgCl2 buffer, unless specified.

Molecule | SAM levels after cycloleucine [1] | Sensor signal (SAM level) after cycloleucine [2] | SAM levels after cycloleucine [3] | koff [4] | Emission maxima with DFHO [5] | Binding and activation of DFAME fluorescence [6]
NC1(C(=O)O)CCCC1 [cycloleucine] | rapid drop of cellular SAM levels; also recorded: markedly depleted | rapid decrease in fluorescence; also recorded: markedly reduced | marked drop in SAM | – | – | –
Corn: previously reported RNA aptamer that homodimerizes and activates DFHO, SEQ ID NO:103 (CGAGGAAGGAGGUCUGAGGAGGUCACUG; RNA, backbone not given here) [reference compound] | – | – | – | 0.018 ± 0.002 s⁻¹ | 545 nm | weakly binds and activates; also recorded: only weakly bind and activate
